Assay results published in PubChem BioAssay AID248 (DTP/NCI, 2004).
“And” between values parts separate entries of the source, which are not always exact repeats. Identical values can stand only once. Inconclusive results and toxic doses are left out.

System: L1210 leukemia ip in BDF1 mice, survival T/C
Experiment: NCI In Vivo Anticancer Drug Screen. Data for tumor model L1210 Leukemia (intraperitoneal) in B6D2F1 (BDF1) mice
Conditions: endpoint: mean survival time, higher = longer survival
Procedure, shortened: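 Tumor was transplanted into mice, which were then dosed with test compound or vehicle alone. Survival was recorded for each group, and the treated figure was expressed relative to the control figure.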

[1] = dose: 6.25 mg/kg/injection, schedule: Q01DX009 (ip), vehicle: saline
[2] = dose: 25.0 mg/kg/injection, schedule: Q01DX009 (ip), vehicle: saline
[3] = dose: 25.0 mg/kg/injection, schedule: Q04DX003 (ip), vehicle: saline
[4] = dose: 50.0 mg/kg/injection, schedule: Q01DX009 (ip), vehicle: saline
[5] = dose: 50.0 mg/kg/injection, schedule: Q04DX003 (ip), vehicle: saline
[6] = dose: 100.0 mg/kg/injection, schedule: Q04DX003 (ip), vehicle: saline
[7] = dose: 150.0 mg/kg/injection, schedule: Q04DX003 (ip), vehicle: saline
[8] = dose: 150.0 mg/kg/injection, schedule: Q01DX001 (ip), vehicle: saline
[9] = dose: 300.0 mg/kg/injection, schedule: Q01DX001 (ip), vehicle: saline
[10] = dose: 1.56 mg/kg/injection, schedule: Q01DX009 (ip), vehicle: saline
[11] = dose: 3.12 mg/kg/injection, schedule: Q01DX009 (ip), vehicle: saline
[12] = dose: 12.5 mg/kg/injection, schedule: Q01DX009 (ip), vehicle: saline
[13] = dose: 12.5 mg/kg/injection, schedule: Q04DX003 (ip), vehicle: saline

For `NC(N)=N/N=C\c1ccc(CCC(=O)O)cc1`, the T/C (dose: 15.0 mg/kg/injection, schedule: Q01DX Z (ip), vehicle: carboxymethylcellulose (CMC)) was 97 % of control, the T/C (dose: 30.0 mg/kg/injection, schedule: Q01DX Z (ip), vehicle: carboxymethylcellulose (CMC)) was 97 % of control and the T/C (dose: 60.0 mg/kg/injection, schedule: Q01DX Z (ip), vehicle: carboxymethylcellulose (CMC)) was 101 % of control. For the same molecule, the T/C (dose: 120.0 mg/kg/injection, schedule: Q01DX Z (ip), vehicle: carboxymethylcellulose (CMC)) was 97 % of control, the T/C (dose: 120.0 mg/kg/injection, schedule: Q01DX Z (oral), vehicle: carboxymethylcellulose (CMC)) was 113 % of control and the T/C (dose: 240.0 mg/kg/injection, schedule: Q01DX Z (oral), vehicle: carboxymethylcellulose (CMC)) was 112 % of control. For the same molecule, the T/C (dose: 480.0 mg/kg/injection, schedule: Q01DX Z (oral), vehicle: carboxymethylcellulose (CMC)) was 109 % of control and the T/C (dose: 960.0 mg/kg/injection, schedule: Q01DX Z (oral), vehicle: carboxymethylcellulose (CMC)) was 109 % of control.

`S=C([S][Sn]([c]1ccccc1)([c]1ccccc1)[c]1ccccc1)N1CCOCC1` was tested, and the T/C (dose: 100.0 mg/kg/injection, schedule: Q04DX003 (ip), vehicle: Klucel (hydroxypropylcellulose) (HPC)) was 100 % of control, the T/C (dose: 200.0 mg/kg/injection, schedule: Q04DX003 (ip), vehicle: Klucel (hydroxypropylcellulose) (HPC)) was 96 % of control and the T/C (dose: 400.0 mg/kg/injection, schedule: Q04DX003 (ip), vehicle: Klucel (hydroxypropylcellulose) (HPC)) was 94 % of control.

In the case of `CC(CN1CC(=O)NC(=O)C1)N1CC(=O)NC(=O)C1.[Cl-].[Pt+4]` (stereo not given), the T/C [1] is reported as 110 % of control, the T/C [2] is reported as 114 % of control and 120 % of control and the T/C [3] is reported as 108 % of control. The T/C [4] was 120 % of control, the T/C [5] was 109 % of control and 120 % of control and the T/C (dose: 100.0 mg/kg/injection, schedule: Q01DX009 (ip), vehicle: saline) was 114 % of control. The T/C [6] was 153 % of control and the T/C [7] was 116 % of control.

For `CCOC(=O)CCCN(C(=O)OCc1ccccc1)N(C)C(=O)OCc1ccccc1`, the T/C (dose: 25.0 mg/kg/injection, schedule: Q04DX003 (ip), vehicle: saline with Tween-80) was 104 % of control, the T/C (dose: 50.0 mg/kg/injection, schedule: Q04DX003 (ip), vehicle: saline with Tween-80) was 111 % of control and the T/C (dose: 100.0 mg/kg/injection, schedule: Q04DX003 (ip), vehicle: saline with Tween-80) was 106 % of control. For the same molecule, the T/C (dose: 200.0 mg/kg/injection, schedule: Q04DX003 (ip), vehicle: saline with Tween-80) was 104 % of control and the T/C (dose: 400.0 mg/kg/injection, schedule: Q04DX003 (ip), vehicle: saline with Tween-80) was 101 % of control.

`CCOC(=O)c1ccc(NCC2=Nc3c(N)nc(N)nc3NC2)cc1` was tested, and the T/C (dose: 3.0 mg/kg/injection, schedule: Q01DX009 (ip), vehicle: Klucel (hydroxypropylcellulose) (HPC)) was 92 % of control, the T/C (dose: 6.0 mg/kg/injection, schedule: Q01DX009 (ip), vehicle: Klucel (hydroxypropylcellulose) (HPC)) was 97 % of control and the T/C (dose: 12.0 mg/kg/injection, schedule: Q01DX009 (ip), vehicle: Klucel (hydroxypropylcellulose) (HPC)) was 101 % of control and 108 % of control. The T/C (dose: 25.0 mg/kg/injection, schedule: Q01DX009 (ip), vehicle: Klucel (hydroxypropylcellulose) (HPC)) was 97 % of control, the T/C (dose: 50.0 mg/kg/injection, schedule: Q01DX009 (ip), vehicle: Klucel (hydroxypropylcellulose) (HPC)) was 90 % of control and the T/C (dose: 100.0 mg/kg/injection, schedule: Q01DX009 (ip), vehicle: Klucel (hydroxypropylcellulose) (HPC)) was 89 % of control.

With `O=C1NC(=S)S/C1=C\c1ccc(Cl)c(Cl)c1` the T/C (dose: 100.0 mg/kg/injection, schedule: Q01DX009 (ip), vehicle: saline with Tween-80) was 97 % of control and the T/C (dose: 200.0 mg/kg/injection, schedule: Q01DX009 (ip), vehicle: saline with Tween-80) was 95 % of control.

With `COC(=O)CCCN1CC2C=C(C#N)C1C(C(=O)OC)C2` (stereo not given) the T/C [8] was 93 % of control and the T/C [9] was 93 % of control.

For `C[n+]1ccc(C#N)c2ccccc21`, the T/C [10] was 96 % of control, the T/C [11] was 98 % of control and the T/C [1] was 106 % of control. For the same molecule, the T/C [12] was 98 % of control and the T/C [13] was 101 % of control.

With `Cc1nccn1-c1ccc(N=Cc2ccc(N(CCCl)CCCl)cc2)cc1` the T/C (dose: 43.8 mg/kg/injection, schedule: Q04DX002 (ip), vehicle: Klucel (hydroxypropylcellulose) (HPC)) was 106 % of control, the T/C (dose: 87.5 mg/kg/injection, schedule: Q04DX002 (ip), vehicle: Klucel (hydroxypropylcellulose) (HPC)) was 106 % of control and the T/C (dose: 175.0 mg/kg/injection, schedule: Q04DX002 (ip), vehicle: Klucel (hydroxypropylcellulose) (HPC)) was 109 % of control.

With `O=C(O)c1cc(Br)cc(Br)c1Cl` the T/C (dose: 100.0 mg/kg/injection, schedule: Q04DX002 (ip), vehicle: Klucel (hydroxypropylcellulose) (HPC)) was 108 % of control, the T/C (dose: 200.0 mg/kg/injection, schedule: Q04DX002 (ip), vehicle: Klucel (hydroxypropylcellulose) (HPC)) was 105 % of control and the T/C (dose: 400.0 mg/kg/injection, schedule: Q04DX002 (ip), vehicle: Klucel (hydroxypropylcellulose) (HPC)) was 97 % of control.

`Nc1ccccc1SCCC(=O)O` was tested, and the T/C (dose: 37.5 mg/kg/injection, schedule: Q04DX003 (ip), vehicle: Klucel (hydroxypropylcellulose) (HPC)) was 96 % of control, the T/C (dose: 75.0 mg/kg/injection, schedule: Q01DX009 (ip), vehicle: saline with Tween-80) was 106 % of control and the T/C (dose: 75.0 mg/kg/injection, schedule: Q04DX003 (ip), vehicle: Klucel (hydroxypropylcellulose) (HPC)) was 86 % of control. For the same molecule, the T/C (dose: 150.0 mg/kg/injection, schedule: Q01DX009 (ip), vehicle: saline with Tween-80) was 105 % of control, the T/C (dose: 150.0 mg/kg/injection, schedule: Q04DX003 (ip), vehicle: Klucel (hydroxypropylcellulose) (HPC)) was 91 % of control and the T/C (dose: 300.0 mg/kg/injection, schedule: Q01DX009 (ip), vehicle: saline with Tween-80) was 98 % of control. The T/C (dose: 300.0 mg/kg/injection, schedule: Q04DX003 (ip), vehicle: Klucel (hydroxypropylcellulose) (HPC)) was 96 % of control.

`CCCCc1csc(=S)[nH]1` was tested, and the T/C (dose: 100.0 mg/kg/injection, schedule: Q01DX001 (sc), vehicle: carboxymethylcellulose (CMC)) was 100 % of control, the T/C (dose: 200.0 mg/kg/injection, schedule: Q01DX001 (sc), vehicle: carboxymethylcellulose (CMC)) was 113 % of control and the T/C (dose: 400.0 mg/kg/injection, schedule: Q01DX001 (sc), vehicle: carboxymethylcellulose (CMC)) was 110 % of control.

`CCCCOC(=O)c1ccc2c(ccc[n+]2C)c1` was tested, and the T/C (dose: 75.0 mg/kg/injection, schedule: Q01DX001 (ip), vehicle: saline) was 95 % of control, the T/C (dose: 75.0 mg/kg/injection, schedule: Q04DX003 (ip), vehicle: saline) was 112 % of control and the T/C [8] was 101 % of control. The T/C [7] was 105 % of control, the T/C [9] was 100 % of control and the T/C (dose: 300.0 mg/kg/injection, schedule: Q04DX003 (ip), vehicle: saline) was 96 % of control.

With `CC(=O)c1ccc2c(c1)N(CCCN1CCN(CCO)CC1)c1ccccc1S2` the T/C (dose: 0.78 mg/kg/injection, schedule: Q01DX009 (ip), vehicle: saline) was 93 % of control and 120 % of control, the T/C (dose: 1.5 mg/kg/injection, schedule: Q01DX009 (ip), vehicle: saline) was 106 % of control and the T/C [10] was 105 % of control and 113 % of control. For the same molecule, the T/C (dose: 3.12 mg/kg/injection, schedule: Q01DX009 (ip), vehicle: Klucel (hydroxypropylcellulose) (HPC)) was 113 % of control, the T/C [11] was 102 % of control and 104 % of control and 116 % of control and the T/C [1] was 103 % of control and 104 % of control. For the same molecule, the T/C (dose: 6.25 mg/kg/injection, schedule: Q04DX003 (ip), vehicle: saline) was 98 % of control, the T/C (dose: 12.5 mg/kg/injection, schedule: Q01DX009 (ip), vehicle: Klucel (hydroxypropylcellulose) (HPC)) was 96 % of control and the T/C [13] was 115 % of control. The T/C [2] was 98 % of control.

For `CN1CCCCC1CCN1c2ccccc2Sc2ccc(S(C)=O)cc21` (stereo not given), the T/C [1] was 97 % of control, the T/C [12] was 98 % of control and 101 % of control and 108 % of control and the T/C [2] was 100 % of control and 101 % of control (2×). For the same molecule, the T/C [3] was 112 % of control, the T/C [4] was 119 % of control and the T/C [5] was 115 % of control. The T/C [6] was 105 % of control.

With `CN1C2CCC1CC(OC(=O)c1ccc(O)cc1)C2` (stereo not given) the T/C (dose: 9.38 mg/kg/injection, schedule: Q01DX001 (ip), vehicle: saline) was 94 % of control and the T/C (dose: 18.75 mg/kg/injection, schedule: Q01DX001 (ip), vehicle: saline) was 102 % of control.
